Columns and labels:
Format in all cases: functional
P388 [1] = experiment: In vivo antitumor activity against mouse P388 cells at 200 mg/kg in 1 day dosing schedule relative to control
P388 [2] = experiment: In vivo antitumor activity against mouse P388 cells at 0.5 mg/kg in 3 day dosing schedule relative to control
P388 [3] = experiment: In vivo antitumor activity against mouse P388 cells at 1 mg/kg in 3 day dosing schedule relative to control
P388 [4] = experiment: In vivo antitumor activity against mouse P388 cells at 2 mg/kg in 3 day dosing schedule relative to control

| SMILES | T/C (P388 [1]) [%] | T/C (P388 [2]) [%] | T/C (P388 [3]) [%] | T/C (P388 [4]) [%] |
| --- | --- | --- | --- | --- |
| O=c1[nH]cc(F)c(=O)[nH]1 [FLUOROURACIL] | 135 | – | – | – |
| COC(=O)[C@@]12OC[C@]34[C@H]([C@@H](O)[C@@H]1O)[C@@]1(C)[C@H](O)C(=O)C=C(C)[C@@H]1C[C@H]3OC(=O)[C@H](OC(=O)c1ccccc1)[C@@H]24 | – | 130 | 129 | – |
| CCCCCC(=O)O[C@H]1C(=O)O[C@@H]2C[C@H]3C(C)=CC(=O)[C@@H](O)[C@]3(C)[C@H]3[C@@H](O)[C@H](O)[C@@]4(C(=O)OC)OC[C@]32[C@@H]14 | – | 123 | – | 134 |

Source: ChEMBL document CHEMBL1150700, “Antitumor agents, 74. Bruceanol-A and -B, two new antileukemic quassinoids from Brucea antidysenterica” (1985)
